Consider one compound from patent US6559137B1 (priority 1997, dated 2003).

What is called AUC is concentration integrated over time. By Cmax is commonly meant the maximum level reached in the sampled fluid or tissue. The term Tmax denotes the time from dosing to the highest level.

Molecules are shown by their SMILES. Where two headings read alike, the source gives them in different places.

For data set [1] the following is noted: both, Sprague-Dawley, rat, in vivo, po.
For data set [2] the following is noted: dog, in vivo, po.
A short description of a further data set: in vivo. Particulars: both, Sprague-Dawley, rat, po.

`CC(C)CN(C[C@@H](O)[C@H](Cc1ccccc1)NC(=O)O[C@H]1CCOC1)S(=O)(=O)c1ccc(N)cc1` [VX-478] registered an AUC in data set [1] of 16200 ± 1800 ng·h/mL. Also, in data set [2], the area under the curve (AUC) came out at 23500 ± 7400 ng·h/mL, the Cmax turned out to be 6800 ± 1100 ng/mL and the time of peak concentration (Tmax) was determined as 1.0 ± 0.8 h. Also, in “in vivo”, the AUC worked out at 29600 ± 5800 ng·h/mL.
